# PubChem BioAssay (NCI)
#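 Cultured in 96-well plates, cells were exposed to test compound for 48 hours across five concentrations. At the TGI there is no net growth.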
# Assays:
# Test in all cases: growth of human tumour cells (NCI), 48 h
# SK-MEL-2 melanoma = system: SK-MEL-2 melanoma
# OVCAR-3 ovarian = system: OVCAR-3 ovarian
# UACC-62 melanoma = system: UACC-62 melanoma
# EKVX NSCLC = system: EKVX NSCLC
# SF-539 CNS = system: SF-539 CNS
# MDA-MB-231 breast = system: MDA-MB-231 breast
# ACHN renal = system: ACHN renal
# CAKI-1 renal = system: CAKI-1 renal
# CCRF-CEM leukemia = system: CCRF-CEM leukemia
# MOLT-4 leukemia = system: MOLT-4 leukemia
# TK-10 renal = system: TK-10 renal
# COLO 205 colon = system: COLO 205 colon
# HL-60(TB) leukemia = system: HL-60(TB) leukemia
# OVCAR-4 ovarian = system: OVCAR-4 ovarian
# OVCAR-5 ovarian = system: OVCAR-5 ovarian
# SF-268 CNS = system: SF-268 CNS
# 786-0 renal = system: 786-0 renal
# MALME-3M melanoma = system: MALME-3M melanoma
# IGROV1 ovarian = system: IGROV1 ovarian
# HS 578T breast = system: HS 578T breast
# SK-MEL-5 melanoma = system: SK-MEL-5 melanoma
# PC-3 prostate = system: PC-3 prostate
# KM12 colon = system: KM12 colon
# K-562 leukemia = system: K-562 leukemia
# HCT-15 colon = system: HCT-15 colon
# OVCAR-8 ovarian = system: OVCAR-8 ovarian
# NCI/ADR-RES ovarian = system: NCI/ADR-RES ovarian
# A498 renal = system: A498 renal
# SNB-75 CNS = system: SNB-75 CNS
# BT-549 breast = system: BT-549 breast
# LOX IMVI melanoma = system: LOX IMVI melanoma
# HCC-2998 colon = system: HCC-2998 colon
# RXF 393 renal = system: RXF 393 renal
# UACC-257 melanoma = system: UACC-257 melanoma
# SW-620 colon = system: SW-620 colon
# SK-OV-3 ovarian = system: SK-OV-3 ovarian
# NCI-H522 lung = system: NCI-H522 lung
# MDA-MB-435 = system: MDA-MB-435
# U251 CNS = system: U251 CNS
# HT29 colon = system: HT29 colon
# DU-145 prostate = system: DU-145 prostate
# NCI-H226 lung = system: NCI-H226 lung
# HCT-116 colon = system: HCT-116 colon
# RPMI-8226 leukemia = system: RPMI-8226 leukemia
# NCI-H460 lung = system: NCI-H460 lung
# SR leukemia = system: SR leukemia
# MDA-N = system: MDA-N
# SNB-19 CNS = system: SNB-19 CNS
# NCI-H23 lung = system: NCI-H23 lung
# UO-31 renal = system: UO-31 renal
# M14 melanoma = system: M14 melanoma
# SF-295 CNS = system: SF-295 CNS
# T-47D breast = system: T-47D breast
# HOP-62 NSCLC = system: HOP-62 NSCLC
# SK-MEL-28 melanoma = system: SK-MEL-28 melanoma
# SN12C renal = system: SN12C renal
# MCF7 breast = system: MCF7 breast
# A549 NSCLC = system: A549 NSCLC
smiles,measurement,setting,value
CCN(/C=C1/C(=O)C(c2ccccc2)N(c2ccccc2)C1=O)CC (configuration not stated),TGI,SK-MEL-2 melanoma,> 10 µM
same,TGI,OVCAR-3 ovarian,> 10 µM
same,TGI,UACC-62 melanoma,> 10 µM
same,TGI,EKVX NSCLC,> 10 µM
same,TGI,SF-539 CNS,> 10 µM
same,TGI,MDA-MB-231 breast,> 10 µM
same,TGI,ACHN renal,> 10 µM
same,TGI,CAKI-1 renal,> 10 µM
same,TGI,CCRF-CEM leukemia,> 10 µM
same,TGI,MOLT-4 leukemia,> 10 µM
same,TGI,TK-10 renal,> 10 µM
same,TGI,COLO 205 colon,> 10 µM
same,TGI,HL-60(TB) leukemia,> 10 µM
same,TGI,OVCAR-4 ovarian,> 10 µM
same,TGI,OVCAR-5 ovarian,> 10 µM
same,TGI,SF-268 CNS,> 10 µM
same,TGI,786-0 renal,> 10 µM
same,TGI,MALME-3M melanoma,> 10 µM
same,TGI,IGROV1 ovarian,> 10 µM
same,TGI,HS 578T breast,> 10 µM
same,TGI,SK-MEL-5 melanoma,> 10 µM
same,TGI,PC-3 prostate,> 10 µM
same,TGI,KM12 colon,> 10 µM
same,TGI,K-562 leukemia,> 10 µM
same,TGI,HCT-15 colon,> 10 µM
same,TGI,OVCAR-8 ovarian,> 10 µM
same,TGI,NCI/ADR-RES ovarian,> 10 µM
same,TGI,A498 renal,> 10 µM
same,TGI,SNB-75 CNS,> 10 µM
same,TGI,BT-549 breast,> 10 µM
same,TGI,LOX IMVI melanoma,> 10 µM
same,TGI,HCC-2998 colon,> 10 µM
same,TGI,RXF 393 renal,> 10 µM
same,TGI,UACC-257 melanoma,> 10 µM
same,TGI,SW-620 colon,> 10 µM
same,TGI,SK-OV-3 ovarian,> 10 µM
same,TGI,NCI-H522 lung,> 10 µM
same,TGI,MDA-MB-435,> 10 µM
same,TGI,U251 CNS,> 10 µM
same,TGI,HT29 colon,> 10 µM
same,TGI,DU-145 prostate,> 10 µM
same,TGI,NCI-H226 lung,> 10 µM
same,TGI,HCT-116 colon,> 10 µM
same,TGI,RPMI-8226 leukemia,> 10 µM
same,TGI,NCI-H460 lung,> 10 µM
same,TGI,SR leukemia,> 10 µM
same,TGI,MDA-N,> 10 µM
same,TGI,SNB-19 CNS,> 10 µM
same,TGI,NCI-H23 lung,> 10 µM
same,TGI,UO-31 renal,> 10 µM
same,TGI,M14 melanoma,> 10 µM
same,TGI,SF-295 CNS,> 10 µM
same,TGI,T-47D breast,> 10 µM
same,TGI,HOP-62 NSCLC,> 10 µM
same,TGI,SK-MEL-28 melanoma,> 10 µM
same,TGI,SN12C renal,> 10 µM
same,TGI,MCF7 breast,> 10 µM
same,TGI,A549 NSCLC,> 10 µM
Cc1cc(N(CCC#N)CCC#N)ccc1/C(N=Nc1ccccc1)=N\NC(=O)c1cc(Cl)ccc1O,TGI,SK-MEL-2 melanoma,> 100 µM
same,TGI,OVCAR-3 ovarian,72.8 µM
same,TGI,UACC-62 melanoma,27.7 µM
same,TGI,EKVX NSCLC,> 100 µM
same,TGI,SF-539 CNS,58.3 µM
same,TGI,MDA-MB-231 breast,83 µM
same,TGI,ACHN renal,42.6 µM
same,TGI,CAKI-1 renal,> 100 µM
same,TGI,CCRF-CEM leukemia,96.3 µM
same,TGI,MOLT-4 leukemia,92.6 µM
same,TGI,TK-10 renal,52.2 µM
same,TGI,COLO 205 colon,39.1 µM
same,TGI,HL-60(TB) leukemia,> 100 µM
same,TGI,OVCAR-4 ovarian,65.4 µM
same,TGI,SF-268 CNS,> 100 µM
same,TGI,786-0 renal,70.3 µM
same,TGI,MALME-3M melanoma,78.3 µM
same,TGI,IGROV1 ovarian,> 100 µM
same,TGI,HS 578T breast,80.2 µM
same,TGI,SK-MEL-5 melanoma,46.5 µM
same,TGI,PC-3 prostate,> 100 µM
same,TGI,KM12 colon,> 100 µM
same,TGI,K-562 leukemia,> 100 µM
same,TGI,HCT-15 colon,53.1 µM
same,TGI,OVCAR-8 ovarian,81.5 µM
same,TGI,NCI/ADR-RES ovarian,72.7 µM
same,TGI,A498 renal,> 100 µM
same,TGI,SNB-75 CNS,> 100 µM
same,TGI,BT-549 breast,57 µM
same,TGI,HCC-2998 colon,31.8 µM
same,TGI,RXF 393 renal,70.2 µM
same,TGI,UACC-257 melanoma,40.5 µM
same,TGI,SK-OV-3 ovarian,> 100 µM
same,TGI,NCI-H522 lung,31 µM
same,TGI,MDA-MB-435,> 100 µM
same,TGI,U251 CNS,> 100 µM
same,TGI,HT29 colon,35.4 µM
same,TGI,DU-145 prostate,> 100 µM
same,TGI,NCI-H226 lung,> 100 µM
same,TGI,HCT-116 colon,36.7 µM
same,TGI,RPMI-8226 leukemia,> 100 µM
same,TGI,NCI-H460 lung,57.5 µM
same,TGI,SR leukemia,79.5 µM
same,TGI,MDA-N,> 100 µM
same,TGI,SNB-19 CNS,> 100 µM
same,TGI,NCI-H23 lung,35.1 µM
same,TGI,UO-31 renal,41.3 µM
same,TGI,M14 melanoma,> 100 µM
same,TGI,SF-295 CNS,> 100 µM
same,TGI,T-47D breast,55.9 µM
same,TGI,HOP-62 NSCLC,> 100 µM
same,TGI,SN12C renal,> 100 µM
same,TGI,MCF7 breast,67.9 µM
same,TGI,A549 NSCLC,> 100 µM
